Among the data in patent publication US8268814B2, “Substituted sulfonamide compounds” (Gruenenthal GmbH, priority 2008, dated 2012) are inhibition values, retold here.

A word on the inhibition: it is the relative decrease from the control value, in per cent.

The target of test [1] is T1, B1R receptor of the rat (rB1R) (Rattus norvegicus, UniProt P97583).
T1 construct: expressed in transfected cells; host or cells: CHO K1 cells (Chinese hamster ovary), stably transfected
T1 sequence (P97583 1-337): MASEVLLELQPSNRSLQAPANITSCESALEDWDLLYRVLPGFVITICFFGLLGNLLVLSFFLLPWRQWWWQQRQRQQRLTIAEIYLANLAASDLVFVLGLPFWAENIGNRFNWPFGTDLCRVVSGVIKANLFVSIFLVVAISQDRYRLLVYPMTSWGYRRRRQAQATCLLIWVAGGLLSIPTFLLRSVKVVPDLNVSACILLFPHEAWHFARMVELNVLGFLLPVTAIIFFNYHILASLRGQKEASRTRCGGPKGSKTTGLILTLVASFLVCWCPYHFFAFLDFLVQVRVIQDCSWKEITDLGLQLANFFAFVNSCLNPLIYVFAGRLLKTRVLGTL
The test can be described thus: Functional FLIPR Ca2+ assay on the bradykinin 1 receptor, rat (rB1R CHO K1 cells). It is filed as cell-based. The conditions noted are these: test substance 10 μM; CHO K1 cells transfected with rat B1R gene; agonist Des-Arg9-bradykinin at EC80; % inhibition compared with maximum achievable inhibition; read-out: B1R antagonism, rat [10 μM] % inhibition. Here is the method:
(§1) The agonistic or antagonistic action of substances can be quantified on the bradykinin 1 receptor (B1R) of the human and rat species with ectopically expressing cell lines (CHO K1 cells) and with the aid of a Ca^2+-sensitive dyestuff (Fluo-4) in a fluorescent imaging plate reader (FLIPR). The figure in % activation is based on the Ca^2+ signal after addition of Lys-Des-Arg^9-bradykinin (0.5 nM) or Des-Arg^9-bradykinin (100 nM). Antagonists lead to a suppression of the Ca^2+ inflow after addition of the agonist. % inhibition compared with the maximum achievable inhibition is stated.
(§2) The agonistic or antagonistic action of substances can be determined on the bradykinin 1 receptor (B1R) of the human and rat species with the following assay. In accordance with this assay, the Ca^2+ inflow through the channel is quantified with the aid of a Ca^2+-sensitive dyestuff (type Fluo-4, Molecular Probes Europe BV, Leiden, Holland) in a fluorescent imaging plate reader (FLIPR, Molecular Devices, Sunnyvale, USA).
(§3) Chinese hamster ovary cells (CHO K1 cells) transfected stably with the human B1R gene (hB1R cells) or the B1R gene of the rat (rB1R cells) are used. For functional studies, these cells are plated out on black 96-well plates with a clear base (BD Biosciences, Heidelberg, Germany or Greiner, Frickenhausen, Germany) in a density of 20,000-35,000 cells/well. The cells are left overnight at 37° C. and 5% CO2 in culture medium (hB1R cells: Nutrient Mixture Ham's F12, Gibco Invitrogen GmbH, Karlsruhe, Germany or DMEM, Sigma-Aldrich, Taufkirchen, Germany; rB1R cells: D-MEM/F12, Gibco Invitrogen GmbH, Karlsruhe, Germany) with 10 vol. % FBS (foetal bovine serum, Gibco Invitrogen GmbH, Karlsruhe, Germany or PAN Biotech GmbH, Aidenbach, Germany). On the following day, the cells are loaded for 60 min at 37° C. with 2.13 μM Fluo-4 (Molecular Probes Europe BV, Leiden, Holland) in HBSS buffer (Hank's buffered saline solution, Gibco Invitrogen GmbH, Karlsruhe, Germany) with 2.5 mM probenecid (Sigma-Aldrich, Taufkirchen, Germany) and 10 mM HEPES (Sigma-Aldrich, Taufkirchen, Germany). The plates are then washed 2× with HBSS buffer, and HBSS buffer which additionally contains 0.1% BSA (bovine serum albumin; Sigma-Aldrich, Taufkirchen, Germany), 5.6 mM glucose and 0.05% gelatine (Merck KgaA, Darmstadt, Germany) is added. After a further incubation of 20 minutes at room temperature, the plates are inserted into the FLIPR for the Ca^2+ measurement.
(§4) Alternatively, the plates are washed with buffer A (15 mM HEPES, 80 mM NaCl, 5 mM KCl, 1.2 mM CaCl2, 0.7 mM MgSO4, 2 g/l glucose, 2.5 mM probenecid), buffer A is added and the plates are loaded with 2.5 μM Fluo-4 and 0.025% Pluronic F127 (Sigma-Aldrich, Taufkirchen, Germany). Thereafter, the cells are washed 2× with buffer A and incubated for 30 minutes with buffer A, which additionally contains 0.05% BSA and 0.05% gelatine, at room temperature and thereafter inserted into the FLIPR for the Ca^2+ measurement. The Ca^2+-dependent fluorescence is measured here before and after addition of substances (λex=488 nm, λem=540 nm). Quantification is by measurement of the highest fluorescence intensity (FC, fluorescence counts) over time.
(§5) The FLIPR protocol consists of 2 additions of substance. Test substances (10 μM) are first pipetted on to the cells and the Ca^2+ inflow is compared with the control (hB1R: Lys-Des-Arg^9-bradykinin >=50 nM; rB1R: Des-Arg^9-bradykinin 10 μM). This gives the figure in % activation based on the Ca^2+ signal after addition of Lys-Des-Arg^9-bradykinin (>=50 nM) or Des-Arg^9-bradykinin (10 μM). After incubation for 10-20 minutes, Lys-Des-Arg^9-bradykinin (hB1R) or Des-Arg^9-bradykinin (rB1R) in the concentration of the EC80 is applied and the inflow of Ca^2+ is likewise determined. Antagonists lead to a suppression of the Ca^2+ inflow. % inhibition compared with the maximum achievable inhibition is calculated. In order to determine the IC50 value, the substances are added in various concentrations. […]

Test [2] deals with T2, human B1R receptor (hB1R) (Homo sapiens, UniProt P46663).
T2 construct: expressed in transfected cells; host or cells: CHO K1 cells (Chinese hamster ovary), stably transfected
T2 sequence (P46663 1-353): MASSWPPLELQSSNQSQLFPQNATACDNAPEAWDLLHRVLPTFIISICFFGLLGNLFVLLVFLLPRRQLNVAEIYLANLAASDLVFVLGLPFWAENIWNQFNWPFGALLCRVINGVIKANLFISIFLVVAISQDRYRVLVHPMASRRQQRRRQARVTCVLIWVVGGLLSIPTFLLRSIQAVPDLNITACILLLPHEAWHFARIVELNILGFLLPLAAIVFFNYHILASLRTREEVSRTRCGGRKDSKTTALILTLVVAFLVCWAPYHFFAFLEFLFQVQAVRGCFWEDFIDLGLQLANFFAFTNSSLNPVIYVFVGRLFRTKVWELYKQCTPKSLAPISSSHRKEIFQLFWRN
The test can be described thus: Functional FLIPR Ca2+ assay on the bradykinin 1 receptor, human (hB1R CHO K1 cells). It is filed as cell-based. The settings on record: test substance 10 μM; CHO K1 cells transfected with human B1R gene; agonist Lys-Des-Arg9-bradykinin at EC80; % inhibition compared with maximum achievable inhibition; read-out: B1R antagonism, human (10 μM] % inhibition. Here is the method:
as §1, §2, §3, §4, §5

Each structure is given as a SMILES string.

With `O=C(CC(NS(=O)(=O)c1ccc2ccccc2c1)c1ccccc1)N1CCc2nc(Cc3ccncc3)sc2C1` (racemic) [Example 42, N-(3-oxo-1-phenyl-3-(2-(pyridin-4-ylmethyl)-6,7-dihydrothiazolo[5,4-c]pyridin-5(4H)-yl)propyl)naphthalene-2-sulfonamide], the inhibition at 10 µM in test [1] came out at 79%; in test [2] it was 14%. Consider `COc1cc(C)c(S(=O)(=O)N2CCCC[C@H]2COCC(=O)N2CCc3sc(CN4CCCN(C)CC4)cc3C2)c(C)c1` [Example 64, 2-[[(2S)-1-[(4-methoxy-2,6-dimethyl-phenyl)sulfonyl]-piperidin-2-yl]-methoxy]-1-[2-[(4-methyl-[1,4]diazepan-1-yl)-methyl]-4,5,6,7-tetrahydro-thieno[3,2-c]pyridin-5-yl]-ethanone], for which the inhibition at 10 µM in test [2] stood at 100%.

`CN1CCN(Cc2cc3c(s2)CCN(C(=O)CCCC2CCCCN2S(=O)(=O)c2ccccc2C(F)(F)F)C3)CC1` (stereo not drawn) [Example 87, 1-[2-[(4-Methyl-piperazin-1-yl)-methyl]-4,5,6,7-tetrahydro-thieno[3,2-c]pyridin-5-yl]-4-[1-[[2-(trifluoromethyl)-phenyl]sulfonyl]-piperidin-2-yl]-butan-1-one]: the inhibition at 10 µM in test [1] was determined as 103%.

For `O=C(CCCC1CCCCN1S(=O)(=O)c1ccccc1C(F)(F)F)N1CCc2[nH]cnc2C1c1ccccc1` (stereo not drawn) [Example 88, 1-(4-Phenyl-4,5,6,7-tetrahydro-1H-imidazo[4,5-c]pyridin-5-yl)-4-[1-[[2-(trifluoromethyl)-phenyl]sulfonyl]-piperidin-2-yl]-butan-1-one], the inhibition at 10 µM in test [1] was 65%.

Consider `COc1cc(C)c(S(=O)(=O)N2c3ccccc3OCC2COCC(=O)N2CCc3sc(CN4CCN(C)CC4)cc3C2)c(C)c1` (stereo not drawn) [Example 91, 2-[[4-[(4-Methoxy-2,6-dimethyl-phenyl)sulfonyl]-3,4-dihydro-2H-[1,4]benzoxazin-3-yl]-methoxy]-1-[2-[(4-methyl-piperazin-1-yl)-methyl]-4,5,6,7-tetrahydro-thieno[3,2-c]pyridin-5-yl]-ethanone], for which the inhibition at 10 µM in test [1] was 103%.

Consider `COc1cc(C)c(S(=O)(=O)N2c3ccccc3OCC2COCC(=O)N2CCc3[nH]cnc3C2c2ccccc2)c(C)c1` (stereo not drawn) [Example 92, 2-[[4-[(4-Methoxy-2,6-dimethyl-phenyl)sulfonyl]-3,4-dihydro-2H-[1,4]benzoxazin-3-yl]-methoxy]-1-(4-phenyl-4,5,6,7-tetrahydro-1H-imidazo[4,5-c]pyridin-5-yl)-ethanone], for which the inhibition at 10 µM in test [1] was 94%. Consider `CN1CCN(Cc2cc3c(s2)CCN(C(=O)COCC2COc4ccccc4N2S(=O)(=O)c2ccccc2C(F)(F)F)C3)CC1` (stereo not drawn) [Example 93, 1-[2-[(4-Methyl-piperazin-1-yl)-methyl]-4,5,6,7-tetrahydro-thieno[3,2-c]pyridin-5-yl]-2-[[4-[[2-(trifluoromethyl)-phenyl]sulfonyl]-3,4-dihydro-2H-[1,4]benzoxazin-3-yl]-methoxy]-ethanone], for which, in test [1], the inhibition at 10 µM is 93%. Take `O=C(COCC1COc2ccccc2N1S(=O)(=O)c1ccccc1C(F)(F)F)N1CCc2[nH]cnc2C1c1ccccc1` (stereo not drawn) [Example 94, 1-(4-Phenyl-4,5,6,7-tetrahydro-1H-imidazo[4,5-c]pyridin-5-yl)-2-[[4-[[2-(trifluoromethyl)-phenyl]sulfonyl]-3,4-dihydro-2H-[1,4]benzoxazin-3-yl]-methoxy]-ethanone]: in test [1], the inhibition at 10 µM was found to be 36%. As for `COc1cc(C)c(S(=O)(=O)N(C)CCOCC(=O)N2CCc3sc(CN4CCN(C)CC4)cc3C2)c(C)c1C` [Example 95, 4-Methoxy-N,2,3,6-tetramethyl-N-[2-[2-[2-[(4-methyl-piperazin-1-yl)-methyl]-4,5,6,7-tetrahydro-thieno[3,2-c]pyridin-5-yl]-2-oxo-ethoxy]-ethyl]-benzenesulfonic acid amide], the inhibition at 10 µM in test [1] is 99%.

For `COc1cc(C)c(S(=O)(=O)N(C)CCOCC(=O)N2CCc3[nH]cnc3C2c2ccccc2)c(C)c1C` (stereo not drawn) [Example 96, 4-Methoxy-N,2,3,6-tetramethyl-N-[2-[2-oxo-2-(4-phenyl-4,5,6,7-tetrahydro-1H-imidazo[4,5-c]pyridin-5-yl)-ethoxy]-ethyl]-benzenesulfonic acid amide], the inhibition at 10 µM in test [1] was found to be 54%. On the same count and under the same terms, the same measure for `CN1CCN(Cc2cc3c(s2)CCN(C(=O)COCC2CCCCN2S(=O)(=O)c2ccccc2C(F)(F)F)C3)CC1` (stereo not drawn) [Example 97, 1-[2-[(4-Methyl-piperazin-1-yl)-methyl]-4,5,6,7-tetrahydro-thieno[3,2-c]pyridin-5-yl]-2-[[1-[[2-(trifluoromethyl)-phenyl]sulfonyl]-piperidin-2-yl]-methoxy]-ethanone]: 96%; for `O=C(COCC1CCCCN1S(=O)(=O)c1ccccc1C(F)(F)F)N1CCc2[nH]cnc2C1c1ccccc1` (stereo not drawn) [Example 98, 1-(4-Phenyl-4,5,6,7-tetrahydro-1H-imidazo[4,5-c]pyridin-5-yl)-2-[[1-[[2-(trifluoromethyl)-phenyl]sulfonyl]-piperidin-2-yl]-methoxy]-ethanone]: 98%.

`COc1cc(C)c(S(=O)(=O)N2CCCCC2COCCC(=O)N2CCc3sc(CN4CCN(C)CC4)cc3C2)c(C)c1` (stereo not drawn) [Example 99, 3-[[1-[(4-Methoxy-2,6-dimethyl-phenyl)sulfonyl]-piperidin-2-yl]-methoxy]-1-[2-[(4-methyl-piperazin-1-yl)-methyl]-4,5,6,7-tetrahydro-thieno[3,2-c]pyridin-5-yl]-propan-1-one]: in test [1], the inhibition at 10 µM stood at 98%. The same measure, in the same setting: the same measure for `COc1cc(C)c(S(=O)(=O)N2CCCCC2COCCC(=O)N2CCc3[nH]cnc3C2c2ccccc2)c(C)c1` (stereo not drawn) [Example 100, 3-[[1-[(4-Methoxy-2,6-dimethyl-phenyl)sulfonyl]-piperidin-2-yl]-methoxy]-1-(4-phenyl-4,5,6,7-tetrahydro-1H-imidazo[4,5-c]pyridin-5-yl)-propan-1-one]: 101%.
